The numbers were not newly measured in patent US12311004B2, “Ophthalmic formulations and methods of use” (VISION SOLUTIONS, LLC, priority 2023, dated 2025), which cites them from elsewhere.

For one data set, the system named is FHV-1. Particulars: low concentrations, in vitro.
The conditions of data set [1]: oral, cat.

`NCCCC[C@H](N)C(=O)O` [L-lysine]: the “effect on the replication kinetics of the virus” value with FHV-1 was “no effect”. For the same compound, in data set [1], the “daily intake at which arginine deficiency is likely to occur” value was “exceeding 80 g/kg”.
